{"source": "ChEMBL document CHEMBL1687731", "about": "“Reverse transcriptase inhibitors as potential colorectal microbicides” (Antimicrob Agents Chemother, 2009)", "key": {"[1]": {"test_system": "Human immunodeficiency virus 1", "test": "Antiviral activity against X4 tropic HIV1 NL4.3 infected in human PBMC assessed as inhibition of p24 antigen production after 2 hrs by ELISA", "assay_type": "functional, organism-based", "conditions": "Human immunodeficiency virus 1, NL4.3, 2 h"}, "[2]": {"test_system": "Human immunodeficiency virus 1", "test": "Antiviral activity against R5 tropic HIV1 R8.BaL infected in human TZM-b1 cells after 2 hrs by luciferase assay", "assay_type": "functional, organism-based", "conditions": "Human immunodeficiency virus 1, R8.BaL, TZM-b1, 2 h"}, "[3]": {"test": "Cytotoxicity against human TZM-bl cells by MTT assay", "assay_type": "cell-based"}, "[4]": {"test_system": "Human immunodeficiency virus 1", "test": "Antiviral activity against R5 tropic HIV1 YU.2 infected in human TZM-b1 cells after 2 hrs by luciferase assay", "assay_type": "functional, organism-based", "conditions": "Human immunodeficiency virus 1, YU.2, TZM-b1, 2 h"}, "[5]": {"test_system": "Human immunodeficiency virus 1", "test": "Antiviral activity against R5 tropic HIV1 R8.BaL infected in human PBMC assessed as inhibition of p24 antigen production after 2 hrs by ELISA", "assay_type": "functional, organism-based", "conditions": "Human immunodeficiency virus 1, R8.BaL"}, "[6]": {"test_system": "Human immunodeficiency virus 1", "test": "Antiviral activity against HIV1 isolate 71361-1 harboring reverse transcriptase K65R mutant infected in human TZM-b1 cells after 2 hrs by luciferase assays", "assay_type": "functional, organism-based"}, "[7]": {"test_system": "Human immunodeficiency virus 1", "test": "Antiviral activity against X4 tropic HIV1 RF infected in human TZM-b1 cells after 2 hrs by luciferase assay", "assay_type": "functional, organism-based", "conditions": "Human immunodeficiency virus 1, RF, TZM-b1, 2 h"}, "[8]": {"test_system": "Human immunodeficiency virus 1", "test": "Antiviral activity against R5 tropic HIV1 BaL infected in human TZM-b1 cells after 2 hrs by luciferase assay", "assay_type": "functional, organism-based", "conditions": "Human immunodeficiency virus 1, BaL, TZM-b1, 2 h"}, "PBMC": {"test_system": "PBMC", "test": "Cytotoxicity against human PBMC by MTT assay", "assay_type": "cell-based"}, "[9]": {"test_system": "Human immunodeficiency virus 1", "test": "Antiviral activity against X4 tropic HIV1 3B infected in human TZM-b1 cells after 2 hrs by luciferase assay", "assay_type": "functional, organism-based", "conditions": "Human immunodeficiency virus 1, 3B, TZM-b1, 2 h"}, "[10]": {"test_system": "Human immunodeficiency virus 1", "test": "Antiviral activity against R5 tropic HIV1 YU.2 infected in human PBMC assessed as inhibition of p24 antigen production after 2 hrs by ELISA", "assay_type": "functional, organism-based", "conditions": "Human immunodeficiency virus 1, YU.2, 2 h"}, "[11]": {"test_system": "Human immunodeficiency virus 1", "test": "Ratio of IC50 for wild type HIV1 to IC50 for HIV1 A17 harboring reverse transcriptase K103N, Y181C mutant", "assay_type": "functional"}, "[12]": {"test_system": "Human immunodeficiency virus 1", "test": "Antiviral activity against X4 tropic HIV1 NL4.3 infected in human TZM-b1 cells after 2 hrs by luciferase assay", "assay_type": "functional, organism-based", "conditions": "Human immunodeficiency virus 1, NL4.3, TZM-b1, 2 h"}, "[13]": {"test_system": "Human immunodeficiency virus 1", "test": "Antiviral activity against HIV1 A17 harboring reverse transcriptase K103N, Y181C mutant infected in human TZM-b1 cells after 2 hrs by luciferase assays", "assay_type": "functional, organism-based"}, "[14]": {"test_system": "Human immunodeficiency virus 1", "test": "Antiviral activity against X4 tropic HIV1 RF infected in human PBMC assessed as inhibition of p24 antigen production after 2 hrs by ELISA", "assay_type": "functional, organism-based", "conditions": "Human immunodeficiency virus 1, RF"}, "[15]": {"test_system": "Human immunodeficiency virus 1", "test": "Antiviral activity against HIV1 isolate 8415-2 harboring reverse transcriptase K65R mutant co-expressing M184V mutant infected in human TZM-b1 cells after 2 hrs by luciferase assays", "assay_type": "functional, organism-based", "conditions": "Human immunodeficiency virus 1, isolate 8415-2, TZM-b1, 2 h"}}, "note": "Calls of active or inactive are those of the source. The rule behind the calls is not given here.", "data": [{"smiles": "Cc1cc(C)c(Nc2ccnc(Nc3ccc(C#N)cc3)n2)c(C)c1", "note": "[DAPIVIRINE]", "values": [{"measurement": "IC50", "setting": "[1]", "value": 1.15, "unit": "nM"}, {"measurement": "IC50", "setting": "[2]", "value": 0.19, "unit": "nM"}, {"measurement": "Activity", "setting": "[3]", "value": "Non-toxic"}, {"measurement": "IC50", "setting": "[4]", "value": 0.15, "unit": "nM"}, {"measurement": "IC50", "setting": "[5]", "value": 1.09, "unit": "nM"}, {"measurement": "Activity", "setting": "[6]", "value": "inactive"}, {"measurement": "IC50", "setting": "[7]", "value": 0.84, "unit": "nM"}, {"measurement": "IC50", "setting": "[8]", "value": 0.8, "unit": "nM"}, {"measurement": "Activity", "setting": "PBMC", "value": "Non-toxic"}, {"measurement": "IC50", "setting": "[9]", "value": 0.53, "unit": "nM"}, {"measurement": "IC50", "setting": "[10]", "value": 1.11, "unit": "nM"}, {"measurement": "Ratio IC50", "setting": "[11]", "value": 17}, {"measurement": "IC50", "setting": "[12]", "value": 0.37, "unit": "nM"}, {"measurement": "IC50", "setting": "[13]; Human immunodeficiency virus 1, A17, TZM-b1, 2 h", "value": 8.34, "unit": "nM"}, {"measurement": "IC50", "setting": "[14]", "value": 1.48, "unit": "nM"}]}, {"smiles": "C[C@H](Cn1cnc2c(N)ncnc21)OCP(=O)(O)O", "note": "[TENOFOVIR ANHYDROUS]", "values": [{"measurement": "IC50", "setting": "[1]", "value": 1400, "unit": "nM"}, {"measurement": "IC50", "setting": "[2]", "value": 4590, "unit": "nM"}, {"measurement": "Activity", "setting": "[3]", "value": "Non-toxic"}, {"measurement": "IC50", "setting": "[4]", "value": 3340, "unit": "nM"}, {"measurement": "IC50", "setting": "[5]", "value": 1010, "unit": "nM"}, {"measurement": "IC50", "setting": "[6]; Human immunodeficiency virus 1, isolate 71361-1, TZM-b1, 2 h", "value": "> 30", "unit": "µM"}, {"measurement": "IC50", "setting": "[7]", "value": 4030, "unit": "nM"}, {"measurement": "IC50", "setting": "[8]", "value": 2520, "unit": "nM"}, {"measurement": "Activity", "setting": "PBMC", "value": "Non-toxic"}, {"measurement": "IC50", "setting": "[9]", "value": 2300, "unit": "nM"}, {"measurement": "IC50", "setting": "[10]", "value": 884, "unit": "nM"}, {"measurement": "IC50", "setting": "[15]", "value": 820, "unit": "nM"}, {"measurement": "IC50", "setting": "[12]", "value": 6690, "unit": "nM"}, {"measurement": "IC50", "setting": "[14]", "value": 1600, "unit": "nM"}]}, {"smiles": "CC(C)=CCOc1cc(NC(=S)c2ccoc2C)ccc1Cl", "note": "[UC 781]", "values": [{"measurement": "IC50", "setting": "[1]", "value": 17.6, "unit": "nM"}, {"measurement": "IC50", "setting": "[2]", "value": 5.86, "unit": "nM"}, {"measurement": "Activity", "setting": "[3]", "value": "Non-toxic"}, {"measurement": "IC50", "setting": "[4]", "value": 5.87, "unit": "nM"}, {"measurement": "IC50", "setting": "[5]", "value": 10.2, "unit": "nM"}, {"measurement": "IC50", "setting": "[7]", "value": 6.01, "unit": "nM"}, {"measurement": "IC50", "setting": "[8]", "value": 9.34, "unit": "nM"}, {"measurement": "Activity", "setting": "PBMC", "value": "Non-toxic"}, {"measurement": "IC50", "setting": "[9]", "value": 7.99, "unit": "nM"}, {"measurement": "IC50", "setting": "[10]", "value": 11.2, "unit": "nM"}, {"measurement": "IC50", "setting": "[12]", "value": 10.2, "unit": "nM"}, {"measurement": "Activity", "setting": "[13]", "value": "inactive"}, {"measurement": "IC50", "setting": "[14]", "value": 9.2, "unit": "nM"}]}]}
